The record followed here is patent publication US6946475B1, “Anticancer calcium channel blockers” (University of Virginia Patent Foundation, priority 1999, dated 2005).

Data set [1] concerns MIA PaCa-2 (pancreatic cancer cell). The experiment in a line: Measurement of cellular proliferation, MIA PaCa-2 cells. The class given is cell-based. Conditions: MIA PaCa-2, 48 hours. The protocol:
(§1) Measurement of cellular proliferation: LNCaP cells at 2.5×10^4/well or PC3 cells at 5×10^4/well, both in a final volume of 100 μl, were plated in triplicate in standard flat bottom 96 well tissue culture plates in the presence of drug or vehicle (DMSO). Unless otherwise indicated, cells were grown for 48 hours at 37° C. in a CO2 incubator. Relative cell growth was determined with the CellTiter 96 aqueous cell proliferation assay (Promega, Madison, Wis.) as described by the manufacturer using an automated plate reader. Results were calculated in a blinded fashion and are means of triplicate determinations.
(§2) For the 48 hour proliferation, cells were cultured with calcium channel antagonists or without calcium channel antagonists. The IC50 values of the calcium channel antagonists were determined.
(§3) Using the measurement cell proliferation assay described hereinabove, the cell lines Jurkat, LNCap (prostate cancer cell), PC-31 (prostate cancer cell), DU145 (prostate cancer cell), MDA-468 (breast cancer cell), MDA-36 (Breast cancer cell), MCF-7 (breast cancer cell), MIA PaCa-2 (pancreatic cancer cell), Hep G2 (liver cancer cell), A549 (non-small cell lung cancer cells), NCI H460 (non-small cell lung cancer cells), HT-29 (colon cancer cell), HCT-116 (colon cancer cell) and SK OV-3 (ovarian cancer cell) were cultured in the presence of TH-1177, TH-1205, TH-1201, TH-2109, TH-2029, TH-2043, TN-2085 and TH-2279.

The target in data set [2] is T1, α1H subunit of a calcium channel of a human heart (Homo sapiens, UniProt O95180).
T1 construct: expressed in transfected cells; host or cells: Xenopus oocytes (so in the source), pcDNA3 plasmid
T1 sequence (O95180 whole entry): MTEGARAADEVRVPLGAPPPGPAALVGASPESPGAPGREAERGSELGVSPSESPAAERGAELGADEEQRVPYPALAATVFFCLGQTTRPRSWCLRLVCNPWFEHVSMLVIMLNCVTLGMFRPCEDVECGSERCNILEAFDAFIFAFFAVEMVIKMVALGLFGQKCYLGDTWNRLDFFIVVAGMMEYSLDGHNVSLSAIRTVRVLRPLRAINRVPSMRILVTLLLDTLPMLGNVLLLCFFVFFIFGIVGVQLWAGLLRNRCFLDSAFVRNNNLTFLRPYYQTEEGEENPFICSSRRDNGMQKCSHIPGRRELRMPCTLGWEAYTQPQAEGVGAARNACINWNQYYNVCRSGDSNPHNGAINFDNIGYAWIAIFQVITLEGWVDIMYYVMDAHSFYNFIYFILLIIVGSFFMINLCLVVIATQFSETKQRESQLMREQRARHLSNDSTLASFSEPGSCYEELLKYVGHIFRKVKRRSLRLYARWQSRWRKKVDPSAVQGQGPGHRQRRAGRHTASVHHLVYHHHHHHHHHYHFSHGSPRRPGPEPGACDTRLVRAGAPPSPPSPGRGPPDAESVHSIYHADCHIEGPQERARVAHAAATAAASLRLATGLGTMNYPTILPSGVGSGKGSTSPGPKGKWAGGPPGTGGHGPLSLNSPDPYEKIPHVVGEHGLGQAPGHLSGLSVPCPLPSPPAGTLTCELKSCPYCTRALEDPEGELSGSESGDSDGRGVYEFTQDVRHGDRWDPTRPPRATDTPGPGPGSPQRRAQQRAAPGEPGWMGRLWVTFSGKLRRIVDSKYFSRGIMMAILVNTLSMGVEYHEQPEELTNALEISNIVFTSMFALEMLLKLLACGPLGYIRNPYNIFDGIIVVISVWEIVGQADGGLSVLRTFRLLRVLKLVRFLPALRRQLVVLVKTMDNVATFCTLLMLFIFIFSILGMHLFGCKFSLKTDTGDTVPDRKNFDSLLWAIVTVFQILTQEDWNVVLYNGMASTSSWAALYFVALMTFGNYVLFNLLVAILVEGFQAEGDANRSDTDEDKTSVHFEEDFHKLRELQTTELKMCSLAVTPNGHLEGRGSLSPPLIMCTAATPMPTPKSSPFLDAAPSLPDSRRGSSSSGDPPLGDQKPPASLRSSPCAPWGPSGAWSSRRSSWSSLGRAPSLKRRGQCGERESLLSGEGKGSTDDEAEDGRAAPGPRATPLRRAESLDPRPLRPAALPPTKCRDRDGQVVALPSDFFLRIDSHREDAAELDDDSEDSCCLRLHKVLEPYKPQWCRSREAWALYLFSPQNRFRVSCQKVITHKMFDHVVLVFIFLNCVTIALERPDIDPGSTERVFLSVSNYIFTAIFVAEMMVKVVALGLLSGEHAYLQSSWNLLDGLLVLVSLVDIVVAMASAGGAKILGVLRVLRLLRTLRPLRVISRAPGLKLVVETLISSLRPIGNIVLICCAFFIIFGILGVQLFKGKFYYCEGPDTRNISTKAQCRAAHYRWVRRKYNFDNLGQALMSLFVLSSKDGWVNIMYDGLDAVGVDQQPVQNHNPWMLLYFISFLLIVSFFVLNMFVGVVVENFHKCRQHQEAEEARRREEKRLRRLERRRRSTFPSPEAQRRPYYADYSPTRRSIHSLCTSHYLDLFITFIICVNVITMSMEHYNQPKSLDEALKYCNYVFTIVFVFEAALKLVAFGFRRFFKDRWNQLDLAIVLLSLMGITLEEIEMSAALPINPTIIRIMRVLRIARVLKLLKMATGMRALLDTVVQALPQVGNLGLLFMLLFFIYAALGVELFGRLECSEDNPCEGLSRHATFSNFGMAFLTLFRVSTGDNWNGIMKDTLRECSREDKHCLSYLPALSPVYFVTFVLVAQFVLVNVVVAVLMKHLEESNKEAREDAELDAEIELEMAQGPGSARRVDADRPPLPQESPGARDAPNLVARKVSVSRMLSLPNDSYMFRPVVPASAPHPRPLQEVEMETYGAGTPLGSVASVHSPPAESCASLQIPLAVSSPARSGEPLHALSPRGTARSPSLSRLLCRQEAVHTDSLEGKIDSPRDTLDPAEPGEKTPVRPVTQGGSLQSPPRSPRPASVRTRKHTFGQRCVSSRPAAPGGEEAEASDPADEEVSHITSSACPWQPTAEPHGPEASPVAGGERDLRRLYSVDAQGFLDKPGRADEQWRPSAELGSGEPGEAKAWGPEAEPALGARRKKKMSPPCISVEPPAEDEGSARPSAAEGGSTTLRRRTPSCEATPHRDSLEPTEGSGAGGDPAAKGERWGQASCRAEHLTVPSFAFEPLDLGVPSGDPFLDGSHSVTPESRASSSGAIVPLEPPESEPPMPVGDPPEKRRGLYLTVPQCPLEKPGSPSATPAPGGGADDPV
The experiment in a line: Whole cell current recording, Xenopus oocytes transfected with α1H subunit. The format is cell-based. An excerpt: Xenopus oocytes were transfected with the α1H subunit of a calcium channel of a human heart prepared in accordance with the procedure described by Cribbs, et al. in Circulation Research, 1998, 83, 103-109, the contents of which are incorporated by reference. The α1H plasmid was obtained by cloning the α1H sequence into the EcoRV-X baI site of the transfection vector pcDNA3, in accordance with the procedure described in the Cribbs, et al. article. Xenopus oocyte cells (1×10^5 per 35 mm dish) were transfected with 2 μg of alpha 1H-Tx plasmid. […] The internal pipette solution contained (mmol/L) CsCl 55, CS SO3 75, MgCl2 10, EGTA 0.1, and HEPES 10 (pH adjusted to 7.2 with (CsOH). Currents were recorded using an Axopatch 200A, a Digidata 1200 A/D converter and pCLAMP software (Axon Instruments, Inc.).
The current of the cell in the depolarized cell was recorded over time (control). Within a few minutes after the control plot was recorded, the cells were again depolarized, but this time, the bath contained in addition 10 μM TH-1177. The current was recorded for the same length of time as the control. The current was recorded at about zero pA. Then the cells in the bath containing 10 μM TH-1177 were depolarized again, but this time the bath medium containing TH-1177 was aspirated out and replaced with fresh calcium medium depolarizing medium and the current was measured.

The nature of data set [3]: Toxicity in SCID mice without tumors. The class given is in vivo. The note with it: 180 mg/kd/d. The protocol: Four SCID mice without tumors were given TH-1177 at a dose of 180 mg/kd/d.
In data set [4] the test system is SK OV-3 (ovarian cancer cell). The experiment in a line: Measurement of cellular proliferation, SK OV-3 cells. The format is cell-based. Conditions: SK-OV-3, 48 hours. The protocol:
as §1, §2, §3

The test system of data set [5] is HCT-116 (colon cancer cell). Put plainly: Measurement of cellular proliferation, HCT-116 cells. The format is cell-based. Conditions: HCT 116, 48 hours. The protocol:
as §1, §2, §3

The next data set concerns Jurkat cells. Put plainly: Measurement of cellular proliferation, Jurkat cells. The note with it: Jurkat, 48 hours; read-out: PROLIFERATION IC50 Jurkat. The format is cell-based. As for the experimental part: as §1, §2, §3
Data set [6] has as its system Hep G2 (liver cancer cell). Put plainly: Measurement of cellular proliferation, Hep G2 cells. The class given is cell-based. Conditions: Hep G2, 48 hours. As for the experimental part: as §1, §2, §3
Data set [7] has as its system MDA-361 cells (breast cancer cell). The experiment in a line: Measurement of cellular proliferation, MDA-361 cells. The format is cell-based. Conditions: MDA-361, 48 hours; read-out: PROLIFERATION IC50 MDA-361. The protocol: as §1, §2, §3
Data set [8] deals with MDA-468 (breast cancer cell). The experiment in a line: Measurement of cellular proliferation, MDA-468 cells. The class given is cell-based. The note with it: MDA-468, 48 hours. The protocol:
as §1, §2, §3

With `COc1ccc(CCN2CCC[C@H]2COC(c2ccccc2)c2ccc(Cl)cc2)cc1` (some centres unmarked) [TH-1177], the IC50 in data set [1] turned out to be 17 µM; in data set [4], 25 µM; in data set [5] it was 37 µM; in the data set with Jurkat cells it was 8 µM; in data set [6], 32 µM; in data set [7] it was 26 µM. This molecule came in with an IC50 in [8] of 13 µM. Moreover, in data set [2] (10 μM TH-1177 in bath), the “Current in depolarized α1H-transfected cells” value is “about zero”. In addition, the “Ability of calcium to cross the cell membrane” value in [2] (α1H-transfected Xenopus oocytes, 10 μM, restored on washout) is given as “inhibits”. Besides, the “Gross findings at necropsy” value in data set [3] is reported as “no gross abnormalities”. The “Histological examination of kidney, adrenal gland, heart and liver” value in data set [3] is listed as “within normal limits”.
